# Experimental data as given in patent US7491819B1 (priority 2004, dated 2009).
# Biological target: T1, HIV-integrase (Human immunodeficiency virus type 1 group M subtype B, UniProt P12497)
# T1 construct: Recombinant integrase (0.26 ng) was incubated with the beads
# Experiment: HIV-Integrase Inhibition Activity (SPA bead strand-transfer assay)
# Type: biochemical
# Conditions: Table 1; read-out: Activity (HIV-integrase inhibition, IC50 class)
# How it was run: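 Strand-transfer read-out: CPM from P33-labelled target DNA (0.1 fmol) joined to bead-bound biotin substrate DNA (5 pmole), with EDTA stop at 10 mM final. Integrase (0.26 ng) prebound to streptavidin SPA beads 90 min, 37° C, and washed before adding inhibitor.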
row,SMILES,IC50 [µM]
1,"CC1(C)OCCn2c1nc(C(=O)NCc1ccccc1N1CCCCS1(=O)=O)c(O)c2=O [Example 215, Pyrimido[2,1-c][1,4]oxazine-2-carboxamide, 4,6,7,9-tetrahydro-3-hydroxy-9,9-dimethyl-4-oxo-N-[[2-(tetrahydro-1,1-dioxido-2H-1,2-thiazin-2-yl)phenyl]methyl]-]",0.002 to 0.1
2,"COC(=O)c1cccc(CNC(=O)c2nc3n(c(=O)c2O)CCOC3(C)C)c1 [Example 264, Benzoic acid, 3-[[[(4,6,7,9-tetrahydro-3-hydroxy-9,9-dimethyl-4-oxopyrimido[2,1-c][1,4]oxazin-2-yl)carbonyl]amino]methyl]-, methyl ester]",0.002 to 0.1
3,"CCC1OCCn2c1nc(C(=O)NCc1ccc(F)cc1)c(O)c2=O (stereo not drawn) [Example 10, Pyrimido[2,1-c][1,4]oxazine-2-carboxamide, 9-ethyl-N-[(4-fluorophenyl)methyl]-4,6,7,9-tetrahydro-3-hydroxy-4-oxo-]",0.002 to 0.1
4,"CCC1OCCn2c1nc(C(=O)NCc1ccc(F)cc1C(=O)NC)c(O)c2=O (stereo not drawn) [Example 15, Pyrimido[2,1-c][1,4]oxazine-2-carboxamide, 9-ethyl-N-[[4-fluoro-2-[(methylamino)carbonyl]phenyl]methyl]-4,6,7,9-tetrahydro-3-hydroxy-4-oxo-]",0.002 to 0.1
5,"CC1(C)OCCn2c1nc(C(=O)NCCCc1ccccc1)c(O)c2=O [Example 217, Pyrimido[2,1-c][1,4]oxazine-2-carboxamide, 4,6,7,9-tetrahydro-3-hydroxy-9,9-dimethyl-4-oxo-N-(3-phenylpropyl)-]",0.002 to 0.1
6,"CC1(C)OCCn2c1nc(C(=O)NCc1ccc(F)cc1S(C)(=O)=O)c(O)c2=O [Example 101, Pyrimido[2,1-c][1,4]oxazine-2-carboxamide, N-[[4-fluoro-2-(methylsulfonyl)phenyl]methyl]-4,6,7,9-tetrahydro-3-hydroxy-9,9-dimethyl-4-oxo-]",0.002 to 0.1
7,"CN(C)S(=O)(=O)c1cc(F)ccc1CNC(=O)c1nc2n(c(=O)c1O)CCCOC2(C)C [Example 204, 6H-Pyrimido[2,1-c][1,4]oxazepine-2-carboxamide, N-[[2-[(dimethylamino)sulfonyl]-4-fluorophenyl]methyl]-4,7,8,10-tetrahydro-3-hydroxy-10,10-dimethyl-4-oxo-]",0.002 to 0.1
8,"CC1(C)OCCn2c1nc(C(=O)NCc1ccc(F)cc1N1CCOCC1)c(O)c2=O [Example 23, Pyrimido[2,1-c][1,4]oxazine-2-carboxamide, N-[[4-fluoro-2-(4-morpholinyl)phenyl]methyl]-4,6,7,9-tetrahydro-3-hydroxy-9,9-dimethyl-4-oxo-]",0.002 to 0.1
9,"CNC(=O)c1cc(F)ccc1CNC(=O)c1nc2n(c(=O)c1O)CCOC2(C)C [Example 49, Pyrimido[2,1-c][1,4]oxazine-2-carboxamide, N-[[4-fluoro-2-[(methylamino)carbonyl]phenyl]methyl]-4,6,7,9-tetrahydro-3-hydroxy-9,9-dimethyl-4-oxo-]",0.002 to 0.1
10,"CC1(C)OCCn2c1nc(C(=O)NCc1ccccc1-c1ccc(C(N)=O)cc1)c(O)c2=O [Example 173, Pyrimido[2,1-c][1,4]oxazine-2-carboxamide, N-[[4′-(aminocarbonyl)[1,1′-biphenyl]-2-yl]methyl]-4,6,7,9-tetrahydro-3-hydroxy-9,9-dimethyl-4-oxo-]",0.002 to 0.1
11,"CC1(C)OCCn2c1nc(C(=O)NCc1ccccc1-c1ccc(N)nc1)c(O)c2=O [Example 157, Pyrimido[2,1-c][1,4]oxazine-2-carboxamide, N-[[2-(6-amino-3-pyridinyl)phenyl]methyl]-4,6,7,9-tetrahydro-3-hydroxy-9,9-dimethyl-4-oxo-]",0.002 to 0.1
12,"Cc1cc(C)cc(CNC(=O)c2nc3n(c(=O)c2O)CCOC3(C)C)c1 [Example 38, Pyrimido[2,1-c][1,4]oxazine-2-carboxamide, N-[(3,5-dimethylphenyl)methyl]-4,6,7,9-tetrahydro-3-hydroxy-9,9-dimethyl-4-oxo-]",0.002 to 0.1
13,"Cc1ccc(CNC(=O)c2nc3n(c(=O)c2O)CCOC3(C)C)c(C)c1 [Example 37, Pyrimido[2,1-c][1,4]oxazine-2-carboxamide, N-[(2,4-dimethylphenyl)methyl]-4,6,7,9-tetrahydro-3-hydroxy-9,9-dimethyl-4-oxo-]",0.002 to 0.1
14,"CC1(C)OCCn2c1nc(C(=O)NCc1ccc(F)cc1N1C(=O)CC[C@@H]1CN)c(O)c2=O [Example 133, (R)—N-(2-(2-(Aminomethyl)-5-oxopyrrolidin-1-yl)-4-fluorobenzyl)-3-hydroxy-9,9-dimethyl-4-oxo-4,6,7,9-tetrahydropyrimido[2,1-c][1,4]oxazine-2-carboxamide]",0.1 to 1
15,"COc1cc(F)ccc1CNC(=O)c1nc2n(c(=O)c1O)CCOC2(C)C [Example 41, Pyrimido[2,1-c][1,4]oxazine-2-carboxamide, N-[(4-fluoro-2-methoxyphenyl)methyl]-4,6,7,9-tetrahydro-3-hydroxy-9,9-dimethyl-4-oxo-]",0.002 to 0.1
16,"CC(C)(C)OC(=O)N1CCN(c2ccccc2CNC(=O)c2nc3n(c(=O)c2O)CCOC3(C)C)CC1 [Example 261, 1-piperazinecarboxylic acid, 4-[2-[[[(4,6,7,9-tetrahydro-3-hydroxy-9,9-dimethyl-4-oxopyrimido[2,1-c][1,4]oxazin-2-yl)carbonyl]amino]methyl]phenyl]-, 1,1-dimethylethyl ester]",0.002 to 0.1
17,"CC1(C)OCCn2c1nc(C(=O)NCc1ncc(F)cc1F)c(O)c2=O [Example 28, Pyrimido[2,1-c][1,4]oxazine-2-carboxamide, N-[(3,5-difluoro-2-pyridinyl)methyl]-4,6,7,9-tetrahydro-3-hydroxy-9,9-dimethyl-4-oxo-]",0.002 to 0.1
18,"COc1cc(Cl)ccc1-c1ccccc1CNC(=O)c1nc2n(c(=O)c1O)CCOC2(C)C [Example 161, Pyrimido[2,1-c][1,4]oxazine-2-carboxamide, N-[(4′-chloro-2′-methoxy[1,1′-biphenyl]-2-yl)methyl]-4,6,7,9-tetrahydro-3-hydroxy-9,9-dimethyl-4-oxo-]",0.002 to 0.1
19,"CC1(C)OCCn2c1nc(C(=O)NCc1ccc(F)cc1N1CCCCS1(=O)=O)c(O)c2=O [Example 27, Pyrimido[2,1-c][1,4]oxazine-2-carboxamide, N-[[4-fluoro-2-(tetrahydro-1,1-dioxido-2H-1,2-thiazin-2-yl)phenyl]methyl]-4,6,7,9-tetrahydro-3-hydroxy-9,9-dimethyl-4-oxo-]",0.002 to 0.1
20,"CC1(C)OCCn2c1nc(C(=O)NCc1ccc(F)cc1-c1ccc(=O)[nH]c1)c(O)c2=O [Example 79, Pyrimido[2,1-c][1,4]oxazine-2-carboxamide, N-[[2-(1,6-dihydro-6-oxo-3-pyridinyl)-4-fluorophenyl]methyl]-4,6,7,9-tetrahydro-3-hydroxy-9,9-dim ethyl-4-oxo-]",0.002 to 0.1
21,"CC1(C)OCCn2c1nc(C(=O)NCc1ccccc1-n1cncn1)c(O)c2=O [Example 216, Pyrimido[2,1-c][1,4]oxazine-2-carboxamide, 4,6,7,9-tetrahydro-3-hydroxy-9,9-dimethyl-4-oxo-N-[[2-(1H-1,2,4-triazol-1-yl)phenyl]methyl]-]",0.002 to 0.1
22,"COc1cccc(CNC(=O)c2nc3n(c(=O)c2O)CCOC3(C)C)c1 [Example 222, Pyrimido[2,1-c][1,4]oxazine-2-carboxamide, 4,6,7,9-tetrahydro-3-hydroxy-N-[(3-methoxyphenyl)methyl]-9,9-dimethyl-4-oxo-]",0.002 to 0.1
23,"Cc1cccc(CNC(=O)c2nc3n(c(=O)c2O)CCOC3(C)C)c1C [Example 233, Pyrimido[2,1-c][1,4]oxazine-2-carboxamide, N-[(2,3-dimethylphenyl)methyl]-4,6,7,9-tetrahydro-3-hydroxy-9,9-dimethyl-4-oxo-]",0.002 to 0.1
24,"CCC1OCCn2c1nc(C(=O)NCc1ccc(Cl)c(Cl)c1)c(O)c2=O (stereo not drawn) [Example 12, Pyrimido[2,1-c][1,4]oxazine-2-carboxamide, N-[(3,4-dichlorophenyl)methyl]-9-ethyl-4,6,7,9-tetrahydro-3-hydroxy-4-oxo-]",0.002 to 0.1
25,"CN(C)CC#Cc1cc(F)ccc1CNC(=O)c1nc2n(c(=O)c1O)CCOC2(C)C [Example 91, Pyrimido[2,1-c][1,4]oxazine-2-carboxamide, N-[[2-[3-(dimethylamino)-1-propynyl]-4-fluorophenyl]methyl]-4,6,7,9-tetrahydro-3-hydroxy-9,9-dimethyl-4-oxo-]",0.002 to 0.1
26,"CC1(C)OCCn2c1nc(C(=O)NCc1ccccc1-c1cccc(C(N)=O)c1)c(O)c2=O [Example 174, Pyrimido[2,1-c][1,4]oxazine-2-carboxamide, N-[[3′-(aminocarbonyl)[1,1′-biphenyl]-2-yl]methyl]-4,6,7,9-tetrahydro-3-hydroxy-9,9-dimethyl-4-oxo-]",0.002 to 0.1
27,"Cc1c(Cl)cccc1CNC(=O)c1nc2n(c(=O)c1O)CCOC2(C)C [Example 236, Pyrimido[2,1-c][1,4]oxazine-2-carboxamide, N-[(3-chloro-2-methylphenyl)methyl]-4,6,7,9-tetrahydro-3-hydroxy-9,9-dimethyl-4-oxo-]",0.002 to 0.1
28,"COc1cncc(-c2ccccc2CNC(=O)c2nc3n(c(=O)c2O)CCOC3(C)C)c1 [Example 153, Pyrimido[2,1-c][1,4]oxazine-2-carboxamide, 4,6,7,9-tetrahydro-3-hydroxy-N-[[2-(5-methoxy-3-pyridinyl)phenyl]methyl]-9,9-dimethyl-4-oxo-]",0.002 to 0.1
29,"CC1(C)OCCn2c1nc(C(=O)NCc1ccccc1-c1cccc3cccnc13)c(O)c2=O [Example 148, Pyrimido[2,1-c][1,4]oxazine-2-carboxamide, 4,6,7,9-tetrahydro-3-hydroxy-9,9-dimethyl-4-oxo-N-[[2-(8-quinolinyl)phenyl]methyl]-]",0.1 to 1

# Same assay, conditions: Table 2a; read-out: HIV-Integrase Inhibition Activity
row,SMILES,IC50 [µM]
1,"CC1(C)OCCn2c1nc(C(=O)NCc1ccc(F)cc1SCCO)c(O)c2=O [Example 313, Pyrimido[2,1-c][1,4]oxazine-2-carboxamide, N-[[4-fluoro-2-[(2-hydroxyethyl)thio]phenyl]methyl]-4,6,7,9-tetrahydro-3-hydroxy-9,9-dimethyl-4-oxo-]",0.002 to 0.1
